On the set-up of data set [1]: method as in PMID 29925826. The conditions noted are these: NH-acid; cited from earlier work.
The test system of the next data set is AGS. Kind of data set: MTT assay, cytotoxic activity. In kind it is cell-based, human. To be noted: Homo sapiens, 24 h, n = 12. How it is done: (§1) The human ovarian SKOV-3, gastric adenocarcinoma AGS, cervical HeLa cell lines and non-cancerous keratinocytes HaCaT were obtained from the American Type Culture Collection (ATCC, Manassas, VA, USA). The cell lines were cultured in McCoy’s Medium, Dulbecco’s Modified Eagle’s Medium/F12, and DMEM, respectively (Merck Millipore, Burlington, MA, USA). Penicillin (100 units/mL), streptomycin ([…]), and 10% (v/v) fetal bovine serum (FBS) were added to all the media. The cells were incubated at 37 °C and 5% CO2.
(§2) To estimate the cytotoxic activity of the obtained compounds 2a-i, MTT assay was used. The cells (5 × 10^3 cells/well) were treated with the compounds in a range of concentrations 1–150 µg/mL. […] After 24 h, MTT solution (0.5 mg/mL) was added to the cells. Formazan crystals were dissolved in DMSO and the absorbance was measured with a microtiter plate reader (Epoch, BioTek Instruments, Winooski, VT, USA).
On the technique in general: Tetrazolium assays rely on reduction of a dye to a coloured formazan, in cell work by metabolically active cells.

In the next data set the test system is HeLa. Kind of data set: MTT assay, cytotoxic activity. The conditions noted are these: Homo sapiens, 24 h, n = 12. In kind it is cell-based, human. How it is done:
as §1, §2

Another data set has as its system SKOV-3. Kind of data set: MTT assay, cytotoxic activity. In kind it is cell-based, human. To be noted: Homo sapiens, SK-OV-3; SKOV-3, MTT, 24 h, n = 12. On the procedure: as §1, §2
The next data set relates to HaCaT. Kind of data set: MTT assay, cytotoxic activity on non-cancerous keratinocytes. In kind it is cell-based. The conditions noted are these: Homo sapiens, 24 h, n = 12. On the procedure:
as §1, §2

In the next data set the test system is S. aureus ATCC 6535. Kind of data set: Microbroth dilution assay. In kind it is cell-based. To be noted: Staphylococcus aureus, ATCC6535. On the technique in general: Dilution methods test growth across graded concentrations, often in twofold steps.
The subject of another data set is S. aureus MRSA 12673. As to the kind of experiment: Microbroth dilution assay. In kind it is cell-based. The conditions noted are these: Staphylococcus aureus, S. aureus MRSA 12673; for MIC: read-out: MIC.
In another data set the test system is E. coli ATCC 8739. As to the kind of experiment: Microbroth dilution assay. In kind it is cell-based. To be noted: Escherichia coli, ATCC8739, E. coli ATCC 8739; for MIC: read-out: MIC. On the procedure:
(§3) The minimum inhibitory concentration (MIC) and minimum bactericidal/fungicidal concentration (MBC/MFC) of the tested compounds were determined by the microbroth dilution technique using 96-well plates based on the methodology described in the EUCAST (European Committee on Antimicrobial Susceptibility Testing) standards. Reference and clinical strains of Gram-positive (Staphylococcus aureus ATCC 6538, Staphylococuccus aureus MRSA 6347) and Gram-negative (Escherichia coli ATCC 8739) bacteria, and yeast (Candida albicans ATCC 10231, Candida glabrata ATCC 2001) were used for the assay. The studies were carried out in the Mueller–Hinton (MH) broth for bacteria and RPMI 1640 broth + MOPS (Sigma-Aldrich, Poland) buffer in the case of yeast. The dry test samples were dissolved in DMSO (dimethyl sulfoxide), resulting in a final concentration of 15 mg/mL, and then diluted in a geometric progression. Ampicillin (Sigma-Aldrich, Poland) acted as a control sample (512 to 4 µg/mL) for bacteria and ketoconazole (128 to 1 µg/mL) (Sigma-Aldrich, Poland) acted as a control sample for yeast. The cultures of microorganisms were prepared by transferring cells from the stock cultures to tubes with the appropriate broth and incubated with agitation in an aerobic atmosphere for 18 ± 2 h at 35 ± 1 °C; next, they were diluted to achieve an optical density corresponding to 5 × 105 (bacteria) or 2 × 105 (yeast) colony-forming units per mL (cfu/mL). An appropriate media (96 µL), along with the tested compounds with a final concentration range of 300–3.1 µg/mL (4 µL) and next microbial suspension (100 µL) were added to each well. Plates with samples were incubated in adequate conditions described above and microbial growth was assessed. […] (>90%; ketoconazole) but 50% (for other compounds) inhibits visible growth of yeasts. Next, as a control of microbial viability, 100 µL of the samples from each well without growth was inoculated on the MH or RPMI agar plates and incubated for 18 ± 2 h at 35 ± 1 °C and finally, the CFU was counted. The MBC/MFC was determined as the minimum concentration of compounds required to kill 99.9% the organisms.

For the next data set, the system named is C. albicans ATCC 10231. As to the kind of experiment: Microbroth dilution assay. In kind it is cell-based, Candida albicans. To be noted: Candida albicans, ATCC10231, C. albicans ATCC 10231; for MFC: read-out: MFC; for MIC: read-out: MIC. How it is done:
as §3

Another data set concerns C. glabrata ATCC 2001. As to the kind of experiment: Microbroth dilution assay. The conditions noted are these: Nakaseomyces glabratus, ATCC2001. In kind it is cell-based, Candida glabrata. How it is done: as §3
The target of data set [2] is T1, AGE2-BSA/sRAGE interaction (Homo sapiens, UniProt Q15109).
T1 construct: purchased Creative BioMart
As to the kind of experiment: ELISA AGE2-BSA/sRAGE inhibitory screening. In kind it is binding. On the procedure: The in vitro inhibitor screening of AGE2 (glyceraldehyde-modified AGE)-sRAGE interaction (soluble RAGE) was performed using a 96-well AGE-BSA-coated plate (Creative BioMart® ELISA kit, Shirley, NY, USA), according to the manufacturer’s instructions. 100 UA/mL soluble RAGE (sRAGE) was incubated with 100 μM of the tested compounds or 0.05% DMSO as a negative control on an AGE2-BSA-coated plate at room temperature for 60 min, shaking at 300 rpm on an orbital microplate shaker. After incubation, the wells were washed 4 times with wash buffer and horseradish peroxidase (HRP)-labeled anti-RAGE antibody was added and the plate was further incubated at room temperature for 60 min, shaking at 300 rpm on an orbital microplate shaker. After incubation, the wells were washed 4 times with wash buffer and the Substrate Reagent was added to each well. After an incubation at room temperature for 5 min, the HRP-labeled antibody sRAGE-AGE complex was then detected by measuring the absorbance at 450 nm using the microplate reader Varioskan (Thermo Fischer Scientific). These experiments were repeated two times.

Data set [3] concerns HeLa, SKOV-3, AGS (and HaCaT) cell lines. As to the kind of experiment: MTT assay, ranges stated over several cell lines. In kind it is cell-based, human. The conditions noted are these: Homo sapiens. How it is done:
as §1, §2

Data set [4] relates to S. aureus ATCC 6535, S. aureus MRSA 12673 and other tested bacterial and yeast strains. As to the kind of experiment: Microbroth dilution assay, ranges stated over several strains. In kind it is cell-based. The conditions noted are these: all tested microorganisms.
Setting [5] is: range over the cancer cell lines HeLa, SKOV-3 and AGS.

≈ marks a conversion by molar mass, not a printed value.

Data on three compounds can be found in paper PMC12562379, “Facile Synthesis of N-vinylindoles via Knoevenagel Condensation: Molecular Features and Biological Activities” (International Journal of Molecular Sciences, 2025).

T1 sequence (Q15109 23-342 limits assumed): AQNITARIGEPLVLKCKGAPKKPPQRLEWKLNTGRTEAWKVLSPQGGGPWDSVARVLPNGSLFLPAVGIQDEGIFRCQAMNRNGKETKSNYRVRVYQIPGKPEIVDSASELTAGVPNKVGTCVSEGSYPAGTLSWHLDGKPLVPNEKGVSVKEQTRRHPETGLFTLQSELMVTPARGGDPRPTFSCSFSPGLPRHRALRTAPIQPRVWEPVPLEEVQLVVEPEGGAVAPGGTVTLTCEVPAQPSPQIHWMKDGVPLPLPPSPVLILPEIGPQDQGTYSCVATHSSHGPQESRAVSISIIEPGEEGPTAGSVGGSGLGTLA

A word on the pKa: it is the pH at which an ionisable group is half protonated. As for `c1ccc2[nH]nnc2c1` [1H-benzotriazole], in [1], the pKa is listed as 8.2.

One may read the IC50 as the concentration at which inhibition is half-maximal. A higher IC50 goes with weaker potency. What is called MBC is the lowest tested concentration that kills the bacteria rather than only halting them. A low value points to greater bactericidal potency. For orientation: MIC means the smallest concentration in the dilution series that meets the test's criterion for growth inhibition. As usually defined, the MFC is the lowest tested concentration that kills the fungus rather than only halting it. By inhibition is commonly meant the drop in the measured response relative to a control, in per cent. A higher inhibition goes with a strong effect. Turning to `Brc1ccc(/C=C(/C2=NCCN2)n2ccc3ccccc32)cc1` [Compound 2f, (Z)-1-[2-(4-bromophenyl)-1-(4,5-dihydro-1H-imidazol-2-yl)vinyl]-1H-indole], the IC50 was 11.1 ± 1.24 µg/mL (≈ 30.4 µM) in the data set with AGS; 2.37 ± 0.15 µg/mL (≈ 6.47 µM) in the data set with HeLa; 2.76 ± 0.18 µg/mL (≈ 7.54 µM) in the data set on SKOV-3; 3.13 ± 0.09 µg/mL (≈ 8.55 µM) in the data set with HaCaT; 2.37 to 2.76 µg/mL (≈ 6.47 to 7.54 µM) in data set [3] (range over HeLa and SKOV-3 cell lines); 2.37 to 11.1 µg/mL (≈ 6.47 to 30.4 µM) in data set [3] (setting [5]). For the same compound, the MBC in the data set on S. aureus ATCC 6535 is 55 µg/mL (≈ 150 µM); against S. aureus MRSA 12673, 110 µg/mL (≈ 300 µM); against E. coli ATCC 8739, 110 µg/mL (≈ 300 µM). For the same compound, the minimal inhibitory concentration (MIC) against S. aureus ATCC 6535 was 27.5 µg/mL (≈ 75.1 µM); with S. aureus MRSA 12673 it was 55 µg/mL (≈ 150 µM); with E. coli ATCC 8739, 110 µg/mL (≈ 300 µM); with C. albicans ATCC 10231, 110 µg/mL (≈ 300 µM); in the data set with C. glabrata ATCC 2001, 220 µg/mL (≈ 601 µM). Further, the minimal fungicidal concentration (MFC) was found to be 110 µg/mL (≈ 300 µM) in the data set with C. albicans ATCC 10231 and 220 µg/mL (≈ 601 µM) against C. glabrata ATCC 2001. Further, in data set [2], 100 µM produced 46.6% inhibition.

As to `C(=C(\C1=NCCN1)n1ccc2ccccc21)/c1cccc2ccccc12` [Compound 2h, (Z)-1-[1-(4,5-dihydro-1H-imidazol-2-yl)-2-(naphthalen-1-yl)vinyl]-1H-indole], the IC50 was 18.9 ± 1.81 µg/mL (≈ 56 µM) in the data set with AGS; 10.1 ± 1.12 µg/mL (≈ 29.9 µM) in the data set on HeLa; 10.39 ± 0.1 µg/mL (≈ 30.8 µM) in the data set on SKOV-3; 17.9 ± 1.93 µg/mL (≈ 53.2 µM) in the data set on HaCaT; 10.1 to 18.9 µg/mL (≈ 29.9 to 56 µM) in [3] (setting [5]). Besides, the figures for the MBC in the data set with S. aureus ATCC 6535, in the data set on S. aureus MRSA 12673 and against E. coli ATCC 8739 were 240 µg/mL (≈ 711 µM), 240 µg/mL (≈ 711 µM) and greater than 240 µg/mL, respectively. Further, the MIC in the data set on S. aureus ATCC 6535 is 120 µg/mL (≈ 356 µM); in the data set on S. aureus MRSA 12673, 120 µg/mL (≈ 356 µM); with E. coli ATCC 8739, greater than 240 µg/mL; in the data set on C. albicans ATCC 10231, greater than 240 µg/mL; in the data set with C. glabrata ATCC 2001 it was 240 µg/mL (≈ 711 µM). The values for the MFC with C. albicans ATCC 10231 and against C. glabrata ATCC 2001 were greater than 240 µg/mL and 240 µg/mL (≈ 711 µM), respectively. In data set [2], this compound gave an inhibition at 100 µM of 36.4%. Also, the “Inhibition (%) of AGE2-BSA/sRAGE interaction” value in data set [2] (100 µM) was found to be 36.3%. In data set [4], this compound displayed an MBC/MFC of no less than 240 µg/mL.
